Data taken from paper PMC4282169 (Nature, 2014).

Molecular target: T1, BoGH5A (Bacteroides ovatus, UniProt A7LXT7)
T1 sequence (A7LXT7 34-502 limits assumed): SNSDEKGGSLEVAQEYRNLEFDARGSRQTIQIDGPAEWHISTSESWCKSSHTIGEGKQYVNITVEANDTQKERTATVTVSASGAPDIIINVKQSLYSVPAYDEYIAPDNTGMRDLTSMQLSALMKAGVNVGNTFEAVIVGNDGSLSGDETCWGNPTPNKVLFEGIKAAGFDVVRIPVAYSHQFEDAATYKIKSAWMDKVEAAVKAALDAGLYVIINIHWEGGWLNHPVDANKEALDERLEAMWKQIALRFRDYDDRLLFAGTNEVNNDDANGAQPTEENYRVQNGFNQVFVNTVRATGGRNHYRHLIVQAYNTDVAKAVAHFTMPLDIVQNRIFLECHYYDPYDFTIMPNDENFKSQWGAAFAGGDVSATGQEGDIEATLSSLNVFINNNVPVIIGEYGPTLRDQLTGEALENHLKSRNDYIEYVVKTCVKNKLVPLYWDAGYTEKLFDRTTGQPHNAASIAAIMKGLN
Experiment: 2-chloro-4-nitrophenolate release, A405, continuous
Format: biochemical
Conditions: read-out: Km (mM) ^‡; 37 °C, 50 mM buffer at or near pH optimum (6.0-7.0)

SMILES: O=[N+]([O-])c1ccc(O[C@@H]2O[C@H](CO)[C@@H](O[C@@H]3O[C@H](CO[C@H]4OC[C@@H](O)[C@H](O)[C@H]4O[C@@H]4O[C@H](CO)[C@H](O)[C@H](O)[C@H]4O)[C@@H](O[C@@H]4O[C@H](CO[C@H]5OC[C@@H](O)[C@H](O)[C@H]5O[C@@H]5O[C@H](CO)[C@H](O)[C@H](O)[C@H]5O)[C@@H](O[C@@H]5O[C@H](CO[C@H]6OC[C@@H](O)[C@H](O)[C@H]6O)[C@@H](O)[C@H](O)[C@H]5O)[C@H](O)[C@H]4O)[C@H](O)[C@H]3O)[C@H](O)[C@H]2O)c(Cl)c1 [XLLG-β-CNP]
- Km: 0.145 ± 0.024 mM
